Tests used:
Recombinant human HDAC6 = target: T1, Recombinant human HDAC6 (Homo sapiens, UniProt Q9UBN7); test: HDAC6 biochemical assay, AMC-labeled peptide substrate; details: HDAC6; read-out: HDAC Isoform IC50 (nM) 6
T1 construct: full length, MW=159 kDa; GST (N); host or cells: Sf9 insect cells (baculovirus)
T1 sequence (Q9UBN7 1-1215): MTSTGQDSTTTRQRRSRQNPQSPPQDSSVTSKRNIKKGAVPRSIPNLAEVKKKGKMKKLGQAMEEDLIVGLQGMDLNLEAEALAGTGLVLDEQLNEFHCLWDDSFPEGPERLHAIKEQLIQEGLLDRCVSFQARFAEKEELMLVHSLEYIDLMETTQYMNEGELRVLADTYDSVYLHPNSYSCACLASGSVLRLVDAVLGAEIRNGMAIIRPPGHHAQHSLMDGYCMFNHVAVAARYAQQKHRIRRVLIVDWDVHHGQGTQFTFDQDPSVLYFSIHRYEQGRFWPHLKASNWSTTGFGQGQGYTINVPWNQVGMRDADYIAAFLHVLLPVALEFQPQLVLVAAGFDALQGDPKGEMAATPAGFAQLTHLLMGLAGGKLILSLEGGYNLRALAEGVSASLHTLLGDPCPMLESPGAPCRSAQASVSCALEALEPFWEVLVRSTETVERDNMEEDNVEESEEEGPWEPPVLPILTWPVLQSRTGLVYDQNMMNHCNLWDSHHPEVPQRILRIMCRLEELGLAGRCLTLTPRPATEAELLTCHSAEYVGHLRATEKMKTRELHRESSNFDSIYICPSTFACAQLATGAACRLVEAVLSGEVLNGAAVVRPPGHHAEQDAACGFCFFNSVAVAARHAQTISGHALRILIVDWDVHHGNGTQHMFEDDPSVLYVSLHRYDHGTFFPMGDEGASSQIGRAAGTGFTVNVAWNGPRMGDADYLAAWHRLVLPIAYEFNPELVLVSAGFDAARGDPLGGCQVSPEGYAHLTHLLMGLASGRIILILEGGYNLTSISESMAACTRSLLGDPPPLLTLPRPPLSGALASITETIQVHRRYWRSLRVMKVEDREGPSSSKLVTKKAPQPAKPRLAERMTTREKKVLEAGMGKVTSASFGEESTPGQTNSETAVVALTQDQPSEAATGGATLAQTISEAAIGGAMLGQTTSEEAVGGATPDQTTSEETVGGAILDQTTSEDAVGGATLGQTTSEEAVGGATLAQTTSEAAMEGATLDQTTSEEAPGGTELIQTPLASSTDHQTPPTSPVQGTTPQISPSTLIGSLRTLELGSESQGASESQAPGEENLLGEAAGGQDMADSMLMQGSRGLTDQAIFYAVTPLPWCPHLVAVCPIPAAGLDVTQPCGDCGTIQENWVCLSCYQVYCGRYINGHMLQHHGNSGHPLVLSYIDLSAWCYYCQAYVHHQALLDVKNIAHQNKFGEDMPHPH
Outline: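 Two-step fluorogenic read-out: enzyme deacetylates 50 μM RHKK(Ac)AMC for 1 h at 30° C in pH 8.0 Tris buffer with BSA and 1% DMSO, then developer cleavage gives signal at Ex 360/Em 460. Enzyme: 0.3 ng/ul recombinant full-length human HDAC6, GST-tagged, Sf9-expressed.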

Human HDAC8 = target: T2, Human HDAC8 (Homo sapiens, UniProt Q9BY41); test: HDAC8 biochemical assay, AMC-labeled peptide substrate; details: read-out: HDAC Isoform IC50 (nM) 8
T2 construct: full length with C-terminal His tag, MW=42.6 kDa; His (C); host or cells: baculovirus expression system
T2 sequence (Q9BY41 1-377): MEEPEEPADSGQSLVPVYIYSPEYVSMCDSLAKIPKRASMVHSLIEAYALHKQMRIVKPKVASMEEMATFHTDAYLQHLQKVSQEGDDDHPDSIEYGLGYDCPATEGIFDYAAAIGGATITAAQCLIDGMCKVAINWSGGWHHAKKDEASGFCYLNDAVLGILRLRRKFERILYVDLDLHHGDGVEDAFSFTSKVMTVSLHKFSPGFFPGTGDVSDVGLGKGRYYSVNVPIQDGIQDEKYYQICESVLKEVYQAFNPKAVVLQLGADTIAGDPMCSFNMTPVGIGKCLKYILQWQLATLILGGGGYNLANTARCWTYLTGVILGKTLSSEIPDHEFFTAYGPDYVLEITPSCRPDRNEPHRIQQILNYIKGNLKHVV
Method: (§1) Activity against all zinc-dependent HDACs 1 to 11 was assessed by using an acetylated AMC-labeled peptide substrate. The substrate RHKK(Ac)AMC was used for HDAC1, HDAC2, HDAC3, HDAC6 and HDAC10; the substrate used for HDAC8 was RHK(Ac)K(Ac)AMC. Activity against the class IIa HDACs (HDAC4, 5, 7, 9) and HDAC11 was determined using a class IIa-specific substrate, BOC-Lys(trifluoroacetyl)-AMC (“Trifluoroacetyl Lysine”; see Lahm et al, 2007, PNAS, 104, 17335-17340). All assays were based on the AMC-labeled substrate and developer combination.
(§2) The protocol involved a two-step reaction: first, the substrate with the acetylated lysine side chain is incubated with a sample containing HDAC activity, to produce the deacetylated products, which are then digested in the second step by the addition of developer to produce the fluorescent signal proportional to the amount of deacetylated substrates.
Human HDAC8 (GenBankAccession No. NM_018486), full length with C-terminal His tag, MW=42.6 kDa, expressed in a baculovirus expression system.
(§3) Assay Buffer: 50 mM Tris-HCl, pH8.0, 137 mM NaCl, 2.7 mM KCl, 1 mM MgC2. Before use, 1 mg/mL BSA and DMSO are added.
HDAC8: 1 ng/ul HDAC8 and 100 µM HDAC8 substrate are in the reaction buffer with 1% DMSO final. Incubate for 2 hours at 30° C.
(§4) Stage 1: Deacetylation of substrate by incubation of HDAC enzymes with compounds
(§5) Stage 2: Development by addition of Developer to digest the deacetylated substrate, and generate the fluorescent colour; Detection: 360/460 Ex/Em

[1] = target: T3, Complex of human HDAC3 and human NCOR2 (Homo sapiens, UniProt O15379); test: HDAC3 biochemical assay, AMC-labeled peptide substrate; details: read-out: HDAC Isoform IC50 (nM) 3
T3 construct: full length with C-terminal His tag, MW=49.7 kDa; His (C); host or cells: baculovirus expression system (co-expressed)
T3 sequence (O15379 whole entry, canonical isoform): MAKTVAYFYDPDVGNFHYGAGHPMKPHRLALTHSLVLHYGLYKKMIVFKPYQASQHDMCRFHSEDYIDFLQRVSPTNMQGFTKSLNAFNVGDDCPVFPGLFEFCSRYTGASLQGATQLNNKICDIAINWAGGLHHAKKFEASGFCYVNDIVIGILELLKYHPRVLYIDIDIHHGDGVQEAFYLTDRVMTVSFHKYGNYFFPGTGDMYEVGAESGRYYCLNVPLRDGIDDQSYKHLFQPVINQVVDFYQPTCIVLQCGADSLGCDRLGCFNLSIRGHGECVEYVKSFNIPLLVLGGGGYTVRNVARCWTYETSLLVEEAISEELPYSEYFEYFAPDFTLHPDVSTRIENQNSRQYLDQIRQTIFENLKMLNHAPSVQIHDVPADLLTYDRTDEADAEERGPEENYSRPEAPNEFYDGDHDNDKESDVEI
T3 sequence (Q9Y618 395-489 partner limits assumed): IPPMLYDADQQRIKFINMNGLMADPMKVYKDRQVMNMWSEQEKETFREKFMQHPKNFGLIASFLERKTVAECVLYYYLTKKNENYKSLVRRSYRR
Method: as §1, §2
Complex of human HDAC3 (GenBank Accession No. NM_003883), full length with C-terminal His tag, MW=49.7 kDa, and human NCOR2 (amino acid 395-489) (GenBank Accession No. NM_006312), N-terminal GST tag, MW=37.6 kDa, co-expressed in baculovirus expression system.
as §3
HDAC3: 0.1 ng/ul HDAC3 and 50 μM HDAC substrate are in the reaction buffer with 1% DMSO final. Incubate for 1 hour at 30° C.
as §4, §5

Row | SMILES | IC50 (Recombinant human HDAC6) [nM] | IC50 (Human HDAC8) [nM] | IC50 [1] [nM]
1 | CC(F)(F)c1cnnc(N(Cc2ccc(-c3noc(C(F)(F)F)n3)s2)c2cnccn2)c1 [Example GU, 5-(1,1-Difluoroethyl)-N-(pyrazin-2-yl)-N-({5-[5-(trifluoromethyl)-1,2,4-oxadiazol-3-yl]thiophen-2-yl}methyl)pyridazin-3-amine] | ≤ 500 | ≤ 10000 | > 10000
2 | O=C(c1cnnc(N(Cc2ccc(-c3noc(C(F)(F)F)n3)s2)c2cnccn2)c1)N1CCC12COC2 [Example GF, 5-{6-Oxa-1-azaspiro[3.3]heptane-1-carbonyl}-N-(pyrazin-2-yl)-N-({5-[5-(trifluoromethyl)-1,2,4-oxadiazol-3-yl]thiophen-2-yl}methyl)pyridazin-3-amine] | ≤ 500 | ≤ 10000 | > 10000
3 | O=C(O)c1ccc(N(Cc2sc(-c3noc(C(F)(F)F)n3)cc2F)c2cnccn2)nn1 [Example EZ, 6-[({3-Fluoro-5-[5-(trifluoromethyl)-1,2,4-oxadiazol-3-yl]thiophen-2-yl}methyl)(pyrazin-2-yl)amino]pyridazine-3-carboxylic acid] | ≤ 10000 | ≤ 10000 | > 10000
4 | O=C(c1ccc(N(Cc2ccc(-c3noc(C(F)(F)F)n3)s2)c2cnccn2)nn1)N1CCOCC1 [Example DS, 6-(Morpholine-4-carbonyl)-N-(pyrazin-2-yl)-N-({5-[5-(trifluoromethyl)-1,2,4-oxadiazol-3-yl]thiophen-2-yl}methyl)pyridazin-3-amine] | ≤ 500 | ≤ 10000 | ≤ 10000
5 | CC1(c2cnnc(N(Cc3ccc(-c4noc(C(F)(F)F)n4)s3)c3cnccn3)c2)COC1 [Example GT, 5-(3-Methyloxetan-3-yl)-N-(pyrazin-2-yl)-N-({5-[5-(trifluoromethyl)-1,2,4-oxadiazol-3-yl]thiophen-2-yl}methyl)pyridazin-3-amine] | ≤ 500 | ≤ 10000 | > 10000
6 | CNC(=O)c1cnnc(N(Cc2ccc(-c3noc(C(F)(F)F)n3)s2)c2cnccn2)c1 [Example DY, N-Methyl-6-[(pyrazin-2-yl)({5-[5-(trifluoromethyl)-1,2,4-oxadiazol-3-yl]thiophen-2-yl}methyl)amino]pyridazine-4-carboxamide] | ≤ 500 | ≤ 10000 | > 10000
7 | O=C(c1ccc(N(Cc2ccc(-c3noc(C(F)(F)F)n3)s2)c2cnccn2)nn1)N1CCC12COC2 [Example FH, 6-{6-Oxa-1-azaspiro[3.3]heptane-1-carbonyl}-N-(pyrazin-2-yl)-N-({5-[5-(trifluoromethyl)-1,2,4-oxadiazol-3-yl]thiophen-2-yl}methyl)pyridazin-3-amine] | ≤ 500 | ≤ 10000 | ≤ 10000
8 | FC(F)c1cnnc(N(Cc2ccc(-c3noc(C(F)(F)F)n3)s2)c2cnccn2)c1 [Example GV, 5-(Difluoromethyl)-N-(pyrazin-2-yl)-N-({5-[5-(trifluoromethyl)-1,2,4-oxadiazol-3-yl]thiophen-2-yl}methyl)pyridazin-3-amine] | ≤ 500 | ≤ 10000 | > 10000
9 | NC(=O)c1cnnc(N(Cc2ccc(-c3noc(C(F)(F)F)n3)s2)c2cnccn2)c1 [Example DX, 6-[(Pyrazin-2-yl)({5-[5-(trifluoromethyl)-1,2,4-oxadiazol-3-yl]thiophen-2-yl}methyl)amino]pyridazine-4-carboxamide] | ≤ 500 | ≤ 10000 | ≤ 10000
10 | COC1CN(C(=O)c2cnnc(N(Cc3ccc(-c4noc(C(F)(F)F)n4)s3)c3cnccn3)c2)C1 [Example DZ, 5-(3-Methoxyazetidine-1-carbonyl)-N-(pyrazin-2-yl)-N-({5-[5-(trifluoromethyl)-1,2,4-oxadiazol-3-yl]thiophen-2-yl}methyl)pyridazin-3-amine] | ≤ 500 | ≤ 10000 | > 10000
11 | O=C(c1nccnc1N(Cc1ccc(-c2noc(C(F)(F)F)n2)s1)c1cnccn1)N1CCC1 [Example GP, 3-(Azetidine-1-carbonyl)-N-(pyrazin-2-yl)-N-({5-[5-(trifluoromethyl)-1,2,4-oxadiazol-3-yl]thiophen-2-yl}methyl)pyrazin-2-amine] | ≤ 1000 | ≤ 10000 | > 10000
12 | CC(C)(O)c1cnnc(N(Cc2ccc(-c3noc(C(F)(F)F)n3)s2)c2cnccn2)c1 [Example GS, 2-{6-[(Pyrazin-2-yl)({5-[5-(trifluoromethyl)-1,2,4-oxadiazol-3-yl]thiophen-2-yl}methyl)amino]pyridazin-4-yl}propan-2-ol] | ≤ 500 | ≤ 10000 | > 10000
13 | C[C@H]1CCCN1C(=O)c1cnnc(N(Cc2ccc(-c3noc(C(F)(F)F)n3)s2)c2cnccn2)c1 [Example GY, 5-[(2S)-2-Methylpyrrolidine-1-carbonyl]-N-(pyrazin-2-yl)-N-({5-[5-(trifluoromethyl)-1,2,4-oxadiazol-3-yl]thiophen-2-yl}methyl)pyridazin-3-amine] | ≤ 500 | ≤ 10000 | > 10000
14 | O=C(c1cnnc(N(Cc2ccc(-c3noc(C(F)(F)F)n3)s2)c2cnccn2)c1)N1CCC(F)(F)CC1 [Example FY, 5-(4,4-Difluoropiperidine-1-carbonyl)-N-(pyrazin-2-yl)-N-({5-[5-(trifluoromethyl)-1,2,4-oxadiazol-3-yl]thiophen-2-yl}methyl)pyridazin-3-amine] | ≤ 500 | ≤ 10000 | > 10000

From US20210038607A1, “OXADIAZOLYLTHIOPHENE DERIVATIVES USEFUL AS HISTONE DEACETYLASE INHIBITORS” (Karus Therapeutics Limited, priority 2018, published 2021)
